Data: patent US10463644B2, “Uses of sesquiterpene lactone compounds and their derivatives in drugs preparation” (ACCENDATECH, priority 2013, dated 2019)
Where two headings read alike, the source gives them in different places.

Key:
[1] = tested on: IL-1β secreted by synoviocyte; assay: Content of IL-1β in culture supernatant of synoviocyte of RA model rats given test compound; type: in vivo; details: rat RA model, dose 30 mg/kg.2d; normal control 0.16 ± 0.034, NaCl 0.49 ± 0.136
Summary of the method: (§1)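 Animals with induced RA are grouped and dosed with compound (30 mg/kg.2d) alongside NaCl and normal controls. Synoviocytes are prepared and cultured, and supernatants are harvested. TNF-α and PGE2 secretion are then quantified by one procedure, IL-1β by another.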

normal cells = assay: Survival rate of normal cells after test compound is added (flow cytometry, Annexin V-FITC/PI); type: cell-based; details: 18 h
Summary of the method: (§2)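 Ficoll-isolated mononuclear cells from patient specimens (e.g. AML) in serum-free IMDM at 1×10^6/mL were exposed to compound for 18 hours. Cells were stained for stem-cell markers (CD34+CD38+ for AML) plus Annexin V-FITC/PI, and apoptosis was read by flow cytometry within one hour.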

cancer stem cells = assay: Survival rate of cancer stem cells after test compound is added (flow cytometry, Annexin V-FITC/PI, clinical specimen); type: cell-based, patient; details: Homo sapiens, 18 h
Summary of the method: as §2

[2] = tested on: PGE2 secreted by synoviocyte; assay: Content of PGE2 in culture supernatant of synoviocyte of RA model rats given test compound; type: in vivo; details: rat RA model, dose 30 mg/kg.2d; normal control 8.34 ± 1.29, NaCl 32.44 ± 10.32
Summary of the method: as §1

cancer cells = assay: Survival rate of cancer cells after test compound is added (flow cytometry, Annexin V-FITC/PI, clinical specimen); type: cell-based, patient; details: Homo sapiens, 18 h, read-out: Survival rate (%) All cells (Stem cells and ordinary cells)
Summary of the method: as §2

[3] = read-out: Survival rate (%) All cells (Stem cells and ordinary cells)
[4] = read-out: Survival rate (%) Stem cells
[5] = Head and neck squamous cell carcinomas

CN(C)C[C@@H]1C(=O)O[C@H]2[C@H]1CCC1(CC1)[C@@H]1CCC3(CC3)[C@H]21 [Compound 27]
83%: viability at 10 µM (cancer stem cells; Ovarian cancer) | viability at 20 µM (cancer cells; Gastric cancer) | viability at 20 µM (cancer cells; [5])
90%: viability at 10 µM (cancer cells; AML) | viability at 10 µM (cancer cells; Gastrointestinal tumor) | viability at 10 µM (cancer cells; Liver cancer)
79%: viability at 20 µM (cancer stem cells; Children hepatoblastoma) | viability at 20 µM (cancer stem cells; Colorectal cancer) | viability at 10 µM (cancer stem cells; Lung cancer)
77%: viability at 20 µM (cancer stem cells; AML) | viability at 20 µM (cancer stem cells; Gastrointestinal tumor) | viability at 20 µM (cancer stem cells; Laryngeal cancer) | viability at 20 µM (cancer stem cells; Liver cancer) | viability at 20 µM (cancer stem cells; Ovarian cancer)
82%: viability at 20 µM (cancer stem cells; CLL) | viability at 10 µM (cancer stem cells; Children hepatoblastoma) | viability at 10 µM (cancer stem cells; Colon adenocarcinoma) | viability at 10 µM (cancer stem cells; Lung adenocarcinoma) | viability at 10 µM (cancer stem cells; Malignant melanoma) | viability at 10 µM (cancer stem cells; Nasopharynx cancer) | viability at 20 µM (cancer cells; Glioma)
0.41 ± 0.047 ng/mL: Content of IL-1β in culture supernatant of synoviocyte (x ± s) [1]
86%: viability at 10 µM (cancer stem cells; Gastrointestinal tumor) | viability at 10 µM (cancer stem cells; Liver cancer) | viability at 10 µM (cancer stem cells; Pancreatic cancer) | viability at 20 µM (cancer cells; AML) | viability at 20 µM (cancer cells; Colorectal cancer) | viability at 20 µM (cancer cells; Gastrointestinal tumor) | viability at 20 µM (cancer cells; Liver cancer) | viability at 20 µM (cancer cells; Lung adenocarcinoma) | viability at 20 µM (cancer cells; Retinoblastoma)
72%: viability at 20 µM (cancer stem cells; Lung cancer)
89%: viability at 20 µM (normal cells; [3]) | viability at 10 µM (cancer cells; Colon adenocarcinoma) | viability at 20 µM (cancer cells; Laryngeal cancer) | viability at 10 µM (cancer cells; Lung adenocarcinoma)
87%: viability at 10 µM (cancer stem cells; AML) | viability at 10 µM (cancer stem cells; Brain tumor) | viability at 10 µM (cancer stem cells; CLL) | viability at 10 µM (cancer stem cells; CML) | viability at 20 µM (cancer cells; Brain tumor) | viability at 20 µM (cancer cells; CML) | viability at 20 µM (cancer cells; Children hepatoblastoma) | viability at 20 µM (cancer cells; Colon adenocarcinoma) | viability at 10 µM (cancer cells; Gastric cancer) | viability at 10 µM (cancer cells; [5])
81%: viability at 20 µM (normal cells; [4]) | viability at 10 µM (cancer stem cells; Gastric cancer) | viability at 10 µM (cancer stem cells; [5]) | viability at 20 µM (cancer cells; Lung cancer) | viability at 20 µM (cancer cells; Skin cancer)
93%: viability at 10 µM (cancer cells; CLL) | viability at 10 µM (cancer cells; Colorectal cancer) | viability at 10 µM (cancer cells; Pancreatic cancer)
88%: viability at 10 µM (normal cells; [4]) | viability at 20 µM (cancer cells; Brain glioma) | viability at 10 µM (cancer cells; Breast cancer) | viability at 20 µM (cancer cells; CLL) | viability at 10 µM (cancer cells; Children hepatoblastoma) | viability at 10 µM (cancer cells; Glioma) | viability at 10 µM (cancer cells; Lung cancer) | viability at 10 µM (cancer cells; Ovarian cancer) | viability at 20 µM (cancer cells; Prostate cancer)
74%: viability at 20 µM (cancer stem cells; Malignant melanoma) | viability at 20 µM (cancer stem cells; Nasopharynx cancer) | viability at 20 µM (cancer stem cells; Skin cancer)
78%: viability at 20 µM (cancer stem cells; Brain glioma) | viability at 20 µM (cancer stem cells; Colon adenocarcinoma) | viability at 20 µM (cancer stem cells; Pancreatic cancer) | viability at 20 µM (cancer stem cells; Prostate cancer)
91%: viability at 10 µM (normal cells; [3]) | viability at 10 µM (cancer cells; Brain glioma) | viability at 10 µM (cancer cells; Malignant melanoma) | viability at 10 µM (cancer cells; Nasopharynx cancer) | viability at 10 µM (cancer cells; Prostate cancer)
84%: viability at 10 µM (cancer stem cells; Brain glioma) | viability at 10 µM (cancer stem cells; Breast cancer) | viability at 10 µM (cancer stem cells; Prostate cancer) | viability at 20 µM (cancer cells; Ovarian cancer)
76%: viability at 20 µM (cancer stem cells; Brain tumor) | viability at 20 µM (cancer stem cells; Breast cancer) | viability at 20 µM (cancer stem cells; CML) | viability at 20 µM (cancer stem cells; Lung adenocarcinoma)
75%: viability at 20 µM (cancer stem cells; Gastric cancer) | viability at 20 µM (cancer stem cells; Glioma) | viability at 20 µM (cancer stem cells; [5])
24.75 ± 2.66 ng/mL: Content of PGE2 in culture supernatant of synoviocyte (x ± s) [2]
85%: viability at 10 µM (cancer stem cells; Colorectal cancer) | viability at 10 µM (cancer stem cells; Laryngeal cancer) | viability at 10 µM (cancer stem cells; Retinoblastoma) | viability at 10 µM (cancer stem cells; Skin cancer) | viability at 20 µM (cancer cells; Breast cancer) | viability at 20 µM (cancer cells; Malignant melanoma) | viability at 20 µM (cancer cells; Nasopharynx cancer)
92%: viability at 10 µM (cancer cells; Laryngeal cancer) | viability at 20 µM (cancer cells; Pancreatic cancer)
94%: viability at 10 µM (cancer cells; Brain tumor) | viability at 10 µM (cancer cells; CML) | viability at 10 µM (cancer cells; Retinoblastoma) | viability at 10 µM (cancer cells; Skin cancer)
80%: viability at 10 µM (cancer stem cells; Glioma) | viability at 20 µM (cancer stem cells; Retinoblastoma)
